Assay results from patent publication US6635245B1, “Strain of bacillus for controlling plant diseases” (priority 1999, dated 2003).
Read-outs that look alike come from different tables or passages of the source.

Experiments:
Assay type in all cases: in vivo
Bremia lactucae = assay: Plant test, downy mildew of lettuce (chemically-resistant strain); conditions: lettuce seedlings, 0 to 5 scale
Peronospora parasitica = assay: Plant test, downy mildew of Brassica; conditions: Brassica seedlings, 0 to 5 scale
Uromyces phaseoli = assay: Plant test, bean rust on snap bean; conditions: snap bean seedlings; 40 ppm; 0 to 5 scale
Botrytis cinerea = assay: B-30087 and B-21661 whole broths alone and together, gray mold on pepper; conditions: 20 ppm, 0 to 5 scale
Protocol: A strain of B. pumilus, NRRL B-30087 was tested with B. subtilis, NRRL B-21661, to determine if the fungicidal effect was greater if used together, than if each strain were used alone. Each strain was grown in a 10 liter or 5,000 liter fermenter, in a soy flour-based medium for approximately 50 hours. Each strain was tested as a whole broth culture against Botrytis cinerea gray mold on pepper, and Peronospora parasitica downy mildew on Brassica. The whole broths were tested at 1X, 1/2X and 1/8X. The two strains were then tested in various combinations with each other at 1/2X, 1/4X and 1/8X. A water check (control) and a chemical fungicide (BREAK® at 20 ppm) were also tested for comparison.

Phytophthora infestans = conditions: tomato seedlings, 0-5 scale
Uncinula necator = assay: Plant test, grape powdery mildew; conditions: grape seedlings (Chardonnay); 25 ppm; 0 to 5 scale
Protocol: Grape seedlings (Chardonnay) were grown in two inch pots until the 6-9 true leaf stage. The culture of powdery mildew was maintained on grape seedlings at 22-26° C. under a 14 hour photoperiod. All but the youngest 2-4 leaves are removed. The NRRL Accession No. B-30087, the chemical fungicide (Rally®, myclobutanil at 25 ppm) and the water check are applied to runoff as above for the other pathogens tested. Four to five replications are used for each treatment. To inoculate with powdery mildew, leaves with mildew on maintenance seedlings are removed with scissors and each plant is inoculated individually. The surface of the maintenance seedling is gently brushed with a paintbrush so that spores are deposited onto the upper surface of the test plants. The procedure is performed using a 3× lighted magnification lens to assure all plants are getting equivalent inoculum. Flats with pots are placed in the dark for 16-24 hours at 20-24° C. Flats are kept at 22-26° C. with a 14 hour photoperiod for an additional 9-11 days until the test is read. […] The result using NRRL Accession No. B-30087 is shown below in Table 5.

## CCO[PH](=O)O [Aliette, fosetyl-al]
Bremia lactucae; 240 ppm
  Score Rep 1: 5.0
  Score Rep 2: 3.0
Peronospora parasitica; 240 ppm
  Score Rep 1: 5.0
  Score Rep 2: 3.0

## CCCC1COC(Cn2cncn2)(c2ccc(Cl)cc2Cl)O1 (stereo not drawn) [Break ®, propiconazole]
Uromyces phaseoli
  Score Rep 1: 0.0
  Score Rep 2: 0.0
  Score Rep 3: 0.5
Botrytis cinerea
  Botrytis cinerea Average disease rating (4 plants): 0.2

## CO/C=C(/C(=O)OC)c1ccccc1Oc1cc(Oc2ccccc2C#N)ncn1 [Quadris, azoxystrobin]
Phytophthora infestans; 62.5 ppm
  Score Rep 1: 0.0
  Score Rep 2: 0.5
  Score Rep 3: 0.0
  Score Rep 4: 0.5
  Score Rep 5: 0.0
Phytophthora infestans; 125 ppm
  Score Rep 1: 0.0
  Score Rep 2: 0.0
  Score Rep 3: 0.0
  Score Rep 4: 0.0
  Score Rep 5: 0.0

## CCCCC(C#N)(Cn1cncn1)c1ccc(Cl)cc1 (stereo not drawn) [Rally, myclobutanil]
Uncinula necator
  Score Rep 1: 0.0
  Score Rep 2: 0.0
  Score Rep 3: 0.0
  Score Rep 4: 0.0

## COCC(=O)N(c1c(C)cccc1C)C(C)C(=O)OC (stereo not drawn) [Ridomil, metalaxyl]
Bremia lactucae; 125 ppm
  Score Rep 1: 3.0
  Score Rep 2: 3.0
Peronospora parasitica; 125 ppm
  Score Rep 1: 4.0
  Score Rep 2: 4.0
  Score Rep 3: 4.0
